The values below come from US20220002314A1 (priority 2018, published 2022).

Like-named read-outs stand apart in the source and are kept apart here.

One assay has as its target Human μ-opioid receptor (Homo sapiens, UniProt P35372). Put plainly: biochemical. It is filed as binding.
The target of assay [1] is Human α2δ-1 subunit of Cav2.2 calcium channel (Homo sapiens, UniProt P54289). Kind of assay: biochemical. In kind it is binding.
Chain of Human α2δ-1 subunit of Cav2.2 calcium channel (P54289 25-1103): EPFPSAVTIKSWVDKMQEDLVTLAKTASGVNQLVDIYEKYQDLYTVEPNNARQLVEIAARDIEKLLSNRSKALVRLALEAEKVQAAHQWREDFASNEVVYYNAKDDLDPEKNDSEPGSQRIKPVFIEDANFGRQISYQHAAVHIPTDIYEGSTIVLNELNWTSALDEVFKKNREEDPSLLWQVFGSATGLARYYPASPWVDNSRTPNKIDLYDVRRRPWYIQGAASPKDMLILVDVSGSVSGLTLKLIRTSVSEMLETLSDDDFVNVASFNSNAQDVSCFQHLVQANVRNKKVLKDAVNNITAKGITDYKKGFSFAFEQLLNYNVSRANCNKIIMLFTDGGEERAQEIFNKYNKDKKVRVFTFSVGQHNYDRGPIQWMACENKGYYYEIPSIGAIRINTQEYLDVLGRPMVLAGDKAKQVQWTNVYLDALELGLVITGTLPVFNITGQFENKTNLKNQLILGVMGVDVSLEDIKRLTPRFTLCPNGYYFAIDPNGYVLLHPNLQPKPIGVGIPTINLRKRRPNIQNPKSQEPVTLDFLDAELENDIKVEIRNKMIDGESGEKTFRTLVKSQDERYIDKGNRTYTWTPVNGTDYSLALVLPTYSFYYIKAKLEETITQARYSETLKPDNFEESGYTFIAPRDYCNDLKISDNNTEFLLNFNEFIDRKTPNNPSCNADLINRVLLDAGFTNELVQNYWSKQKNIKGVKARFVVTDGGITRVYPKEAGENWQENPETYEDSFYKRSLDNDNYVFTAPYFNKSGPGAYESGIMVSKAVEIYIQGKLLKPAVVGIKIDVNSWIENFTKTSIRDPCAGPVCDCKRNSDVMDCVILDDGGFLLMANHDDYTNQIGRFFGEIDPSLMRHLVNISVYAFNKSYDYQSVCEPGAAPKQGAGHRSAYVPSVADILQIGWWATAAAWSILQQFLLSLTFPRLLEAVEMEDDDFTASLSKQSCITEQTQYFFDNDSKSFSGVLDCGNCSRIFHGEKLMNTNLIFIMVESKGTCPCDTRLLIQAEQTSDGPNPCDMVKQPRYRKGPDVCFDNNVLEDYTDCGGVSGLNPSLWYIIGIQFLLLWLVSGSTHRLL

Chain of Human μ-opioid receptor (P35372 whole entry): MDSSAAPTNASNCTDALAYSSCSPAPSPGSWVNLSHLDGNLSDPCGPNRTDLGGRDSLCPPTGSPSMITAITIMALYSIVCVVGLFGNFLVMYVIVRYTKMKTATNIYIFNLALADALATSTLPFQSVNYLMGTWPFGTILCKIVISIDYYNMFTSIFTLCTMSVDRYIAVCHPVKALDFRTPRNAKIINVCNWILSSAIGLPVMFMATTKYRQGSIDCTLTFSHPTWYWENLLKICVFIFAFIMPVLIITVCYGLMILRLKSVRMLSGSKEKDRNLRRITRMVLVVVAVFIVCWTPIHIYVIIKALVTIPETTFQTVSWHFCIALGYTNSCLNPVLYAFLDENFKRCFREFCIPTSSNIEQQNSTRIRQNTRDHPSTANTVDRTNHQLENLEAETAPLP

`CCC[C@@H](c1nc2cc(F)c(Br)cc2c(=O)n1CC)N1CCN[C@H](C)C1` [Example 209, 6-bromo-3-ethyl-7-fluoro-2-((S)-1-((R)-3-methylpiperazin-1-yl)butyl)quinazolin-4(3H)-one]: the Ki is 100 to 500 nM at Human μ-opioid receptor and below 500 nM in assay [1].
With `CCC[C@H](c1nc2cc(F)c(OC)cc2c(=O)n1CC)N1CCN[C@H](C)C1` [Example 210, 3-ethyl-7-fluoro-6-methoxy-2-((R)-1-((R)-3-methylpiperazin-1-yl)butyl)quinazolin-4(3H)-one], the Ki is above 500 nM on Human μ-opioid receptor and below 500 nM in assay [1].
For `CCC[C@H](c1nc2ccc(OC)cc2c(=O)n1CC)N1CCN[C@H](C)C1` [Example 211, 3-ethyl-6-methoxy-2-((R)-1-((R)-3-methylpiperazin-1-yl)butyl)quinazolin-4(3H)-one] the same measures were above 500 nM and below 500 nM.
For `CCC[C@H](c1nc2ccc(Br)cc2c(=O)n1CC)N1CCN[C@@H](CC)C1` [Example 212, 6-bromo-3-ethyl-2-((R)-1-((S)-3-ethylpiperazin-1-yl)butyl)quinazolin-4(3H)-one] the same measures were above 500 nM and below 500 nM.
For `CCC[C@H](c1nc2cc(F)c(OC)cc2c(=O)n1CC)N1CCN[C@@H](C)C1` [Example 213, 3-ethyl-7-fluoro-6-methoxy-2-((R)-1-((S)-3-methylpiperazin-1-yl)butyl)quinazolin-4(3H)-one] the same measures were above 500 nM and below 500 nM.
As for `CCC[C@H](c1nc2ccc(F)cc2c(=O)n1CC)N1CCN[C@@H](C)C1` [Example 214, 3-ethyl-6-fluoro-2-((R)-1-((S)-3-methylpiperazin-1-yl)butyl)quinazolin-4(3H)-one], the Ki on Human μ-opioid receptor is 100 to 500 nM; in assay [1] it was below 500 nM.
For `CCC[C@H](c1nc2ccc(OC)cc2c(=O)n1CC)N1CCN[C@@H](C)C1` [Example 215, 3-ethyl-6-methoxy-2-((R)-1-((S)-3-methylpiperazin-1-yl)butyl)quinazolin-4(3H)-one] the same measures were above 500 nM and below 500 nM.
For `CCC[C@H](c1nc2cc(F)c(F)cc2c(=O)n1CC)N1CCN[C@@H](C)C1` [Example 216, 3-ethyl-6,7-difluoro-2-((R)-1-((S)-3-methylpiperazin-1-yl)butyl)quinazolin-4(3H)-one] the same measures were 100 to 500 nM and below 500 nM.
For `CCC[C@H](c1nc2c(F)cc(Cl)cc2c(=O)n1CC)N1CCN[C@@H](C)C1` [Example 217, 6-chloro-3-ethyl-8-fluoro-2-((R)-1-((S)-3-methylpiperazin-1-yl)butyl)quinazolin-4(3H)-one] the same measures were below 100 nM and below 500 nM.
For `CCC[C@H](c1nc2ccc(F)c(F)c2c(=O)n1CC)N1CCN[C@@H](C)C1` [Example 218, 3-ethyl-5,6-difluoro-2-((R)-1-((S)-3-methylpiperazin-1-yl)butyl)quinazolin-4(3H)-one], the Ki at Human μ-opioid receptor is 100 to 500 nM; in assay [1], below 500 nM.
For `CCC[C@H](c1nc2ccc(Br)cc2c(=O)n1CC)N1CCN[C@@H](COC)C1` [Example 219, 6-bromo-3-ethyl-2-((R)-1-((R)-3-(methoxymethyl)piperazin-1-yl)butyl)quinazolin-4(3H)-one] the same measures were above 500 nM and below 500 nM.
For `CCC[C@@H](c1nc2ccc(Br)cc2c(=O)n1CC)N1CCN[C@@H](COC)C1` [Example 220, 6-bromo-3-ethyl-2-((S)-1-((R)-3-(methoxymethyl)piperazin-1-yl)butyl)quinazolin-4(3H)-one] the same measures were above 500 nM and above 5000 nM.
For `CCC[C@H](c1nc2cc(F)c(Cl)cc2c(=O)n1C)N1CCN[C@@H](C)C1` [Example 221, 6-chloro-7-fluoro-3-methyl-2-((R)-1-((S)-3-methylpiperazin-1-yl)butyl)quinazolin-4(3H)-one] the same measures were below 100 nM and 500 to 5000 nM.
Turning to `CCC[C@H](c1nc2ccc(F)c(F)c2c(=O)n1C)N1CCN[C@@H](C)C1` [Example 222, 5,6-difluoro-3-methyl-2-((R)-1-((S)-3-methylpiperazin-1-yl)butyl)quinazolin-4(3H)-one], the results for the Ki (at Human μ-opioid receptor (read-out: μ-binding); in assay [1] (read-out: α2δ-1 binding)) were above 500 nM and 500 to 5000 nM, respectively.
In the case of `CCC[C@H](c1nc2c(F)cc(Cl)cc2c(=O)n1C)N1CCN[C@@H](C)C1` [Example 223, 6-chloro-8-fluoro-3-methyl-2-((R)-1-((S)-3-methylpiperazin-1-yl)butyl)quinazolin-4(3H)-one], the figures for the Ki (on Human μ-opioid receptor; in assay [1]) were below 100 nM and above 5000 nM, respectively.
Take `CCC[C@H](c1nc2ccc(Br)cc2c(=O)n1CC)N1CCNC(C)(C)C1` [Example 224, (R)-6-bromo-2-(1-(3,3-dimethylpiperazin-1-yl)butyl)-3-ethylquinazolin-4(3H)-one]: the Ki on Human μ-opioid receptor is below 100 nM; in assay [1], above 5000 nM.
Regarding `CCC[C@H](c1nc2c(F)cc(F)cc2c(=O)n1C)N1CCN[C@@H](C)C1` [Example 225, 6,8-difluoro-3-methyl-2-((R)-1-((S)-3-methylpiperazin-1-yl)butyl)quinazolin-4(3H)-one], the Ki on Human μ-opioid receptor lay in the range of 100 to 500 nM; in assay [1] it was 500 to 5000 nM.
For the molecule `CCC[C@H](c1nc2c(F)cc(F)c(F)c2c(=O)n1CC)N1CCN[C@@H](C)C1` [Example 226, 3-ethyl-5,6,8-trifluoro-2-((R)-1-((S)-3-methylpiperazin-1-yl)butyl)quinazolin-4(3H)-one], the values for the Ki (at Human μ-opioid receptor; in assay [1]) were 100 to 500 nM and 500 to 5000 nM, respectively.
For `CCC[C@@H](c1nc2ccc(Br)cc2c(=O)n1CC)N1C[C@H](C)N[C@@H](C)C1` [Example 227, 6-Bromo-2-((S)-1-((3S,5S)-3,5-dimethylpiperazin-1-yl)butyl)-3-ethylquinazolin-4(3H)-one] the same measures were above 500 nM and above 5000 nM.
For `CCC[C@H](c1nc2ccc(Br)cc2c(=O)n1CC)N1C[C@H](C)N[C@@H](C)C1` [Example 228, 6-Bromo-2-((R)-1-((3S,5S)-3,5-dimethylpiperazin-1-yl)butyl)-3-ethylquinazolin-4(3H)-one] the same measures were below 100 nM and above 5000 nM.
For `CCC[C@H](c1nc2ccc(Cl)cc2c(=O)n1CC)N1CCN[C@H](CF)C1` [Example 229, 6-Chloro-3-ethyl-2-((R)-1-((S)-3-(fluoromethyl)piperazin-1-yl)butyl)quinazolin-4(3H)-one] the same measures were above 500 nM and below 500 nM.
Regarding `CCC[C@H](c1nc2ccc(Cl)cc2c(=O)n1CC)N1CCN[C@@H](CF)C1` [Example 230, 6-chloro-3-ethyl-2-((R)-1-((R)-3-(fluoromethyl)piperazin-1-yl)butyl)quinazolin-4(3H)-one], the values for the Ki (on Human μ-opioid receptor; in assay [1]) were above 500 nM and 500 to 5000 nM, respectively.
Turning to `CCC[C@@H](c1nc2ccc(Cl)cc2c(=O)n1CC)N1CCN[C@@H](CF)C1` [Example 231, 6-chloro-3-ethyl-2-((S)-1-((R)-3-(fluoromethyl)piperazin-1-yl)butyl)quinazolin-4(3H)-one], the Ki at Human μ-opioid receptor was above 500 nM; in assay [1], above 5000 nM.
For `CCC[C@@H](c1nc2ccc(Cl)cc2c(=O)n1CC)N1CCN[C@H](CF)C1` [Example 232, 6-chloro-3-ethyl-2-((S)-1-((S)-3-(fluoromethyl)piperazin-1-yl)butyl)quinazolin-4(3H)-one] the same measures were above 500 nM and above 5000 nM.
